Source: patent US8158389B2, “Products and methods for in vivo secretion of monatin” (priority 2005, dated 2012)
Values joined by “and” are separate entries in the source; they are usually repeats but may differ in a detail not shown here. Identical values can stand only once.

Biological target: T1, AcrAB efflux system (Escherichia coli, UniProt P31224)
T1 construct: endogenous in cells; host or cells: E. coli BL21 (DE3) carrying aspC/proA on pET32
Experiment: Monatin efflux per dry cell weight after induction of the AcrAB efflux pump with sodium decanoate
Assay type: cell-based
Procedure: The microbial strain used for the experiment was E. coli BL21 (DE3) : : aspC/proA/pET32 (WO 03091396). The symbol : :, as is known in the art, stands for “transformed.” Example 12 provides a non-limiting exemplary method for transforming a microorganism. For an inoculum, the E. coli strains were grown overnight at 37° C. and 250 rpm in Luria-Bertani (“LB”) medium with 100 μg/mL ampicillin. For the experimental treatments, Trp-1+ glucose medium, a minimal medium that has been used for increased production of tryptophan in E. coli cells (Zeman et al. Folia Microbiol. 35:200-204, (1990)), was prepared as follows. To 800 mL nanopure water the following reagents were added: 2 g (NH4)2SO4 and 13.6 g KH2PO4. The pH was adjusted to 7.0, the volume was increased to 948 mL, and the medium was autoclaved. Following sterilization, 0.2 g MgSO4.7H2O, 0.01 g CaCl2.2H2O, and 0.5 mg FeSO4.7H2O were added to the medium in a 1.8 mL volume followed by addition of 0.2 mL of Neidhardt's micronutrient solution. Neidhardt, F. C., et al., “Culture medium for Enterobacteria,” J. Bacteriol. 119:736-746 (1974). Neidhardt's medium includes (per liter): 0.18 g (NH4)6(MO7)24.4H2O, 1.24 g H3BO3, 0.36 g CoCl2.6H2O, 0.12 g CuSO4 (anhydrous), 0.8 g MnCl2.4H2O, and 0.14 g ZnSO4.7H2O. A 50% glucose solution was prepared separately and sterile-filtered. Forty mL of glucose solution and 10 mL of 1 M 3-Morpholinopropanesulfonic acid (“MOPS”) buffer were added to the base medium (950 mL) for a 1 L final volume. […] Flasks were incubated at 37° C. with agitation at 250 rpm up to induction. […] 0.5 mM pyridoxine hydrochloride, and 0.2 mL of Balch's vitamins (Balch, W. E., et al., “Methanogens: reevaluation of a unique biological group,” Microbiol. Rev. 43:260-296, (1979)) were added at induction and the incubation temperature was lowered to 30° C. following induction. […] Some treatments included 2.5 mM sodium decanoate addition at 3.5 hours following induction. Samples for monatin analysis and dry cell weight determination were taken at 24 and 30 hours. Monatin analysis was done as described in Example 13.
Analyses of mixtures for monatin and tryptophan derived from in vitro or in vivo biochemical reactions were performed using a Waters/Micromass liquid chromatography-tandem mass spectrometry (“LC/MS/MS”) instrument including a Waters 2795 liquid chromatograph with a Waters 996 Photo-Diode Array (PDA) absorbance monitor placed in series between the chromatograph and a Micromass Quattro Ultima triple quadrupole mass spectrometer. LC separations were made using an Xterra MS C8 reversed-phase chromatography column, 2.1 mm×250 mm at 40° C. The LC mobile phase consisted of A) water containing 0.05% (v/v) trifluoroacetic acid and B) methanol containing 0.05% (v/v) trifluoroacetic acid.
The gradient elution was linear from 5% B to 35% B, 0-4 min, linear from 35% B to 60% B, 4-6.5 min, linear from 60% B to 90% B, 6.5-7 min, isocratic at 90% B 7-11 min, linear from 90% B to 95% B, 11-12 min, linear from 95% B to 5% B, 12-13 min, with a 5 min re-equilibration period between runs. The flow rate was 0.25 mL/min, and PDA absorbance was monitored from 200 nm to 400 nm. All parameters of the ESI-MS were optimized and selected based on generation of protonated molecular ions ([M+H]^+) of the analytes of interest, and production of characteristic fragment ions. […]

[1] = 2.5 mM Na decanoate, E. coli BL21 (DE3)::aspC/proA/pET32, single flasks

T1 sequence (P31224 whole entry): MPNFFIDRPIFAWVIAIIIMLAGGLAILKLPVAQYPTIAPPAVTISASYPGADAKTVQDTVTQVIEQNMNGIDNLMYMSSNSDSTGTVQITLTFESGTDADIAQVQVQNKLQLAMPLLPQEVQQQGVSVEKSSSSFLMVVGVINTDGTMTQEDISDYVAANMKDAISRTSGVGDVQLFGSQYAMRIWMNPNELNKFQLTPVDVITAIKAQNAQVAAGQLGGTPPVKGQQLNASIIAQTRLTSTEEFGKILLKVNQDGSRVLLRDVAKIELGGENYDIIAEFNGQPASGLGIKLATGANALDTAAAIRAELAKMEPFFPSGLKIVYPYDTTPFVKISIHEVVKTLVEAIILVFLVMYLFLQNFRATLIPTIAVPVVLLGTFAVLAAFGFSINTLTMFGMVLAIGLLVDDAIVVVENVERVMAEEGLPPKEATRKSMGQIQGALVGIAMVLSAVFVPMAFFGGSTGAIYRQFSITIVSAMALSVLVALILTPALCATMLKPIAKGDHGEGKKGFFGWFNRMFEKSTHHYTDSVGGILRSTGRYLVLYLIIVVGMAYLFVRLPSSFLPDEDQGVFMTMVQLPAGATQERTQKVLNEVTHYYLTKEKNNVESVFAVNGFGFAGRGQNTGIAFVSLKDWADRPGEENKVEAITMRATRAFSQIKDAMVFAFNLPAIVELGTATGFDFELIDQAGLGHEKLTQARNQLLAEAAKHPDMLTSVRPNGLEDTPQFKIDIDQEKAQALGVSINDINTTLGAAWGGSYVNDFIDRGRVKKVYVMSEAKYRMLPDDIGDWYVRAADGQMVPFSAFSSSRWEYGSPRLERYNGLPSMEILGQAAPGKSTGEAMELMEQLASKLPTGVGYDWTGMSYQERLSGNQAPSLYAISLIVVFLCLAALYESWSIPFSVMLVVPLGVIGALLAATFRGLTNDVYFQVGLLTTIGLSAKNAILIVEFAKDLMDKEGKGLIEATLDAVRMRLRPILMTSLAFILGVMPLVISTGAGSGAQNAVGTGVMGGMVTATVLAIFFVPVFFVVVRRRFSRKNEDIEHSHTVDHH
T1 sequence (P02930 23-493, further chain): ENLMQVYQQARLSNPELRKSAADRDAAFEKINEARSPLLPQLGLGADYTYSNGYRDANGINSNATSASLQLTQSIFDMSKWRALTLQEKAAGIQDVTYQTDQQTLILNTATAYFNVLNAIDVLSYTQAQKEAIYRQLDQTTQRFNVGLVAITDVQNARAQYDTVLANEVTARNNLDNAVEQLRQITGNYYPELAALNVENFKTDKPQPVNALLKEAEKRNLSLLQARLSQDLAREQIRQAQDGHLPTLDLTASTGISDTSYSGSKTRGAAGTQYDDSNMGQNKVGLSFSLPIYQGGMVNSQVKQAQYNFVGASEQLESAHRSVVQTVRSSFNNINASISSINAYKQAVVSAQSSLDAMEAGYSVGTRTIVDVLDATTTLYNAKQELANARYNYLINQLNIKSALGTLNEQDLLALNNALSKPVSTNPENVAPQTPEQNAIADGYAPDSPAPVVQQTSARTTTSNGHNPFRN
T1 sequence (P0AE06 25-397, further chain): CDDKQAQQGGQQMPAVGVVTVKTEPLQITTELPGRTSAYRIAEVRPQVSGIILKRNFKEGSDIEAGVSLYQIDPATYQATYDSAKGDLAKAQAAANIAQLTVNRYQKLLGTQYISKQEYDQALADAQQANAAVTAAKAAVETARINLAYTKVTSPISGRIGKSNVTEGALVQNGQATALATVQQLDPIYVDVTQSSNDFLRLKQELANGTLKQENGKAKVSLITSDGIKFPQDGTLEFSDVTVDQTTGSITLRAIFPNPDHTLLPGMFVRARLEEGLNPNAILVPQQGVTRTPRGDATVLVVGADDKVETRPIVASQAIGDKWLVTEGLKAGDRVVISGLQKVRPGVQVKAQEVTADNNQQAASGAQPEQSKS

CCCCCCCCCC(=O)[O-].[Na+] [sodium decanoate]
Monatin/dcw at run hour 24 [1]: 14.7 mg monatin/g dcw and 12.0 mg monatin/g dcw and 17.0 mg monatin/g dcw | Monatin/dcw at run hour 30 [1]: 14.3 mg monatin/g dcw and 13.8 mg monatin/g dcw and 17.4 mg monatin/g dcw | Average monatin/dcw at run hour 24 (2.5 mM Na decanoate, n = 3): 14.6 mg monatin/g dcw | Average monatin/dcw at run hour 30 (2.5 mM Na decanoate, n = 3): 15.2 mg monatin/g dcw | increase in monatin secreted/dry cell weight (2.5 mM sodium decanoate vs no decanoate): Greater than nine fold increase
